Experimental data published in article PMC6379498, “Radiosynthesis and in vivo evaluation of ^11C-labeled BMS-193885 and its desmethyl analog as PET tracers for neuropeptide Y1 receptors” (EJNMMI Radiopharmacy and Chemistry, 2019).

Legend:
[1] = Biodistribution of radioactivity in mice after tracer injection; format: in vivo; conditions: for Radioactivity level, blood / Radioactivity level, brain / Radioactivity level, heart / Radioactivity level, kidney / Radioactivity level, liver / Radioactivity level, lung / Radioactivity level, muscle / Radioactivity level, pancreas / Radioactivity level, small intestine / Radioactivity level, spleen: mean±S.D. n=4
Experimental: [^11C]1 (13 MBq/0.12 nmol) or [^11C]2 (15 MBq/0.36 nmol) was intravenously injected into mice (aged 7–8 weeks, weighing 33–38 g, n = 4). Mice were euthanized by cervical dislocation at 5, 15, 30, or 60 min post-injection.
(§1) Blood samples were collected by heart puncture. Tissues were dissected and weighed. The radioactivity in samples was measured with an automatic gamma counter (Wizard 3′′ 1480, PerkinElmer, Waltham, MA, USA). The tissue uptake of radioactivity was expressed as the percentage of injected dose detected per gram of sample (%ID/g, tissue radioactivity/g tissue/injected radioactivity × 100).

[2] = test system: P-gp and BCRP; test: Effect of pretreatment with elacridar on tissue distribution of radioactivity; format: in vivo, mice; conditions: 30 min post-injection, elacridar 5 mg/kg 20-30 min before tracer, vs control
Experimental: The effects of pretreatment with 1 (BMS-193885) or the ABC transporter-inhibitor elacridar (inhibiting drug efflux transporters, mainly P-gp and BCRP) on tissue distributions of radioactivity were investigated. [^11C]1 (7.1–14 MBq/0.079–0.23 nmol) or [^11C]2 (6.0 MBq/0.16 nmol) was intravenously injected into mice (aged 7–8 weeks, weighing 32–36 g, n = 4–8) 20–30 min after the administration of the solution of 1 (10 mg/kg body weight [b.w.]/0.1 mL water containing 20% Tween 80), elacridar (5 mg/kg b.w./0.1 mL water), or a control fluid (0.1 mL water). Mice were euthanized by cervical dislocation at 30 min post-injection.
as §1

[3] = Analysis of metabolites in mouse plasma (radio-HPLC); format: in vivo, mice; conditions: for Percentage of intact tracer in plasma: mouse plasma, 30 min post-injection, radio-HPLC, n=4; for Metabolism in vivo (mouse plasma): within 30 min post-injection
Experimental: [^11C]1 (37–56 MBq/0.73–0.95 nmol) or [^11C]2 (46–61 MBq/1.1–1.5 nmol) was intravenously injected into mice (aged 7–9 weeks, weighing 33–43 g, n = 4). Mice were euthanized by cervical dislocation at 30 min post-injection. Blood samples taken by heart puncture were collected into heparinized syringes. Samples were centrifuged at 13,000×g (Model 5500, KUBOTA, Tokyo, Japan) for 3 min at 4 °C to obtain plasma (0.1–0.2 mL). Plasma samples were added to equivalent volumes of 1 mol/L ammonium acetate solution. Samples were directly loaded into the injector loop, and analyzed using the combination of column-switching HPLC and on-line solid-phase extraction as a modification of the previously described procedures (Chitneni et al. [2008]; Gillings [2009]; Greuter et al. [2005]; Hilton et al. [2000]; Kawamura et al. [2013]). HPLC analysis was performed using the radio-HPLC system for metabolite analysis mentioned in the ‘General’ section above, and also using a Cadenza HS-C18 column (3 μm mesh, 10 mm i.d. × 150 mm length; Imtakt, Kyoto, Japan) fitted with a Cadenza HS-C18 guard cartridge (3 μm mesh, 10 mm i.d. × 8 mm length; Imtakt). Elution was performed using a 0.1 mol/L ammonium acetate solution for 3 min after loading, a mixture of 90% acetonitrile solution and water (0:100 to 40:60, vol./vol.) from 3 to 4 min after loading, and then a mixture of 90% acetonitrile solution and water (40:60, vol./vol.) from 4 to 12 min after loading. The flow rate was 4 mL/min. The retention times of [^11C]1 and [^11C]2 were 10.0 and 10.5 min, respectively.

Structure (SMILES): COC(=O)C1=C(C)NC(C)=C(C(=O)OC)C1c1cccc(NC(=O)NCCCN2CCC(c3cccc(O[11CH3])c3)CC2)c1 [[^11C]1]
- Radioactivity level, blood ([1]; 5 min after i.v. injection): 0.76±0.07 %ID/g
- Radioactivity level, blood ([1]; 15 min after i.v. injection): 0.60±0.06 %ID/g
- Radioactivity level, blood ([1]; 30 min after i.v. injection): 0.50±0.04 %ID/g
- Radioactivity level, blood ([1]; 60 min after i.v. injection): 0.46±0.06 %ID/g
- Radioactivity level, brain ([1]; 5 min after i.v. injection): 0.21±0.01 %ID/g
- Radioactivity level, brain ([1]; 15 min after i.v. injection): 0.40±0.06 %ID/g
- Radioactivity level, brain ([1]; 30 min after i.v. injection): 0.32±0.05 %ID/g
- Radioactivity level, brain ([1]; 60 min after i.v. injection): 0.32±0.05 %ID/g
- Radioactivity level, heart ([1]; 5 min after i.v. injection): 1.93±0.23 %ID/g
- Radioactivity level, heart ([1]; 15 min after i.v. injection): 1.38±0.04 %ID/g
- Radioactivity level, heart ([1]; 30 min after i.v. injection): 1.10±0.05 %ID/g
- Radioactivity level, heart ([1]; 60 min after i.v. injection): 0.82±0.07 %ID/g
- Radioactivity level, kidney ([1]; 5 min after i.v. injection): 17.41±1.12 %ID/g
- Radioactivity level, kidney ([1]; 15 min after i.v. injection): 14.06±1.00 %ID/g
- Radioactivity level, kidney ([1]; 30 min after i.v. injection): 12.93±1.01 %ID/g
- Radioactivity level, kidney ([1]; 60 min after i.v. injection): 13.37±2.72 %ID/g
- Radioactivity level, liver ([1]; 5 min after i.v. injection): 16.09±1.85 %ID/g
- Radioactivity level, liver ([1]; 15 min after i.v. injection): 8.82±2.28 %ID/g
- Radioactivity level, liver ([1]; 30 min after i.v. injection): 5.05±0.40 %ID/g
- Radioactivity level, liver ([1]; 60 min after i.v. injection): 4.09±1.60 %ID/g
- Radioactivity level, lung ([1]; 5 min after i.v. injection): 5.08±1.12 %ID/g
- Radioactivity level, lung ([1]; 15 min after i.v. injection): 3.43±0.28 %ID/g
- Radioactivity level, lung ([1]; 30 min after i.v. injection): 2.72±0.21 %ID/g
- Radioactivity level, lung ([1]; 60 min after i.v. injection): 2.13±0.36 %ID/g
- Radioactivity level, muscle ([1]; 5 min after i.v. injection): 0.64±0.05 %ID/g
- Radioactivity level, muscle ([1]; 15 min after i.v. injection): 0.57±0.08 %ID/g
- Radioactivity level, muscle ([1]; 30 min after i.v. injection): 0.52±0.11 %ID/g
- Radioactivity level, muscle ([1]; 60 min after i.v. injection): 0.47±0.07 %ID/g
- Radioactivity level, pancreas ([1]; 5 min after i.v. injection): 3.40±0.46 %ID/g
- Radioactivity level, pancreas ([1]; 15 min after i.v. injection): 3.75±0.35 %ID/g
- Radioactivity level, pancreas ([1]; 30 min after i.v. injection): 3.64±0.22 %ID/g
- Radioactivity level, pancreas ([1]; 60 min after i.v. injection): 3.70±0.41 %ID/g
- Radioactivity level, small intestine ([1]; 5 min after i.v. injection): 6.98±2.37 %ID/g
- Radioactivity level, small intestine ([1]; 15 min after i.v. injection): 9.11±1.31 %ID/g
- Radioactivity level, small intestine ([1]; 30 min after i.v. injection): 11.02±1.44 %ID/g
- Radioactivity level, small intestine ([1]; 60 min after i.v. injection): 12.43±1.54 %ID/g
- Radioactivity level, spleen ([1]; 5 min after i.v. injection): 3.18±0.67 %ID/g
- Radioactivity level, spleen ([1]; 15 min after i.v. injection): 2.05±0.17 %ID/g
- Radioactivity level, spleen ([1]; 30 min after i.v. injection): 1.66±0.04 %ID/g
- Radioactivity level, spleen ([1]; 60 min after i.v. injection): 1.41±0.24 %ID/g
- Change of radioactivity level in blood by pretreatment with elacridar ([2]; blood): significantly increased
- Change of radioactivity level in brain by pretreatment with elacridar [2]: significantly increased
- Change of radioactivity level in heart by pretreatment with elacridar [2]: significantly increased
- Change of radioactivity level in kidney by pretreatment with elacridar [2]: significantly decreased
- Change of radioactivity level in lung by pretreatment with elacridar ([2]; lung): significantly increased
- Change of radioactivity level in muscle by pretreatment with elacridar ([2]; muscle): significantly increased
- Percentage of intact tracer in plasma [3]: 11.8 ± 2.5%
- Metabolism in vivo (mouse plasma) [3]: rapidly metabolized

Structure (SMILES): COC(=O)C1=C(C)NC(C)=C(C(=O)OC)C1c1cccc(N[11C](=O)NCCCN2CCC(c3cccc(O)c3)CC2)c1 [[^11C]2]
- Radioactivity level, blood ([1]; 5 min after i.v. injection): 0.65±0.05 %ID/g
- Radioactivity level, blood ([1]; 15 min after i.v. injection): 0.21±0.01 %ID/g
- Radioactivity level, blood ([1]; 30 min after i.v. injection): 0.17±0.02 %ID/g
- Radioactivity level, blood ([1]; 60 min after i.v. injection): 0.19±0.20 %ID/g
- Radioactivity level, brain ([1]; 5 min after i.v. injection): 0.05±0.02 %ID/g
- Radioactivity level, brain ([1]; 15 min after i.v. injection): 0.04±0.04 %ID/g
- Radioactivity level, brain ([1]; 30 min after i.v. injection): 0.01±0.00 %ID/g
- Radioactivity level, brain ([1]; 60 min after i.v. injection): 0.03±0.01 %ID/g
- Radioactivity level, heart ([1]; 5 min after i.v. injection): 0.69±0.09 %ID/g
- Radioactivity level, heart ([1]; 15 min after i.v. injection): 0.42±0.02 %ID/g
- Radioactivity level, heart ([1]; 30 min after i.v. injection): 0.28±0.04 %ID/g
- Radioactivity level, heart ([1]; 60 min after i.v. injection): 0.14±0.04 %ID/g
- Brain penetration ([1]; judged from brain radioactivity at 30 min): penetrated the brain poorly
- Radioactivity level, kidney ([1]; 5 min after i.v. injection): 13.25±1.18 %ID/g
- Radioactivity level, kidney ([1]; 15 min after i.v. injection): 10.96±0.51 %ID/g
- Radioactivity level, kidney ([1]; 30 min after i.v. injection): 9.89±0.52 %ID/g
- Radioactivity level, kidney ([1]; 60 min after i.v. injection): 9.23±1.61 %ID/g
- Radioactivity level, liver ([1]; 5 min after i.v. injection): 29.54±1.57 %ID/g
- Radioactivity level, liver ([1]; 15 min after i.v. injection): 24.28±3.04 %ID/g
- Radioactivity level, liver ([1]; 30 min after i.v. injection): 15.54±4.41 %ID/g
- Radioactivity level, liver ([1]; 60 min after i.v. injection): 8.43±2.71 %ID/g
- Radioactivity level, lung ([1]; 5 min after i.v. injection): 1.00±0.08 %ID/g
- Radioactivity level, lung ([1]; 15 min after i.v. injection): 0.79±0.11 %ID/g
- Radioactivity level, lung ([1]; 30 min after i.v. injection): 0.82±0.13 %ID/g
- Radioactivity level, lung ([1]; 60 min after i.v. injection): 0.65±0.08 %ID/g
- Radioactivity level, muscle ([1]; 5 min after i.v. injection): 0.44±0.21 %ID/g
- Radioactivity level, muscle ([1]; 15 min after i.v. injection): 0.30±0.02 %ID/g
- Radioactivity level, muscle ([1]; 30 min after i.v. injection): 0.38±0.17 %ID/g
- Radioactivity level, muscle ([1]; 60 min after i.v. injection): 0.33±0.19 %ID/g
- Radioactivity level, pancreas ([1]; 5 min after i.v. injection): 1.20±0.18 %ID/g
- Radioactivity level, pancreas ([1]; 15 min after i.v. injection): 1.27±0.11 %ID/g
- Radioactivity level, pancreas ([1]; 30 min after i.v. injection): 1.18±0.18 %ID/g
- Radioactivity level, pancreas ([1]; 60 min after i.v. injection): 1.15±0.13 %ID/g
- Radioactivity level, small intestine ([1]; 5 min after i.v. injection): 15.78±6.51 %ID/g
- Radioactivity level, small intestine ([1]; 15 min after i.v. injection): 30.77±8.94 %ID/g
- Radioactivity level, small intestine ([1]; 30 min after i.v. injection): 27.23±12.69 %ID/g
- Radioactivity level, small intestine ([1]; 60 min after i.v. injection): 13.52±4.25 %ID/g
- Radioactivity level, spleen ([1]; 5 min after i.v. injection): 0.79±0.11 %ID/g
- Radioactivity level, spleen ([1]; 15 min after i.v. injection): 0.55±0.07 %ID/g
- Radioactivity level, spleen ([1]; 30 min after i.v. injection): 0.37±0.07 %ID/g
- Radioactivity level, spleen ([1]; 60 min after i.v. injection): 0.23±0.05 %ID/g
- Change of radioactivity level in brain by pretreatment with elacridar [2]: not increased
- Change of radioactivity level in heart by pretreatment with elacridar [2]: significantly increased
- Change of radioactivity level in kidney by pretreatment with elacridar [2]: significantly decreased
- Change of radioactivity level in liver by pretreatment with elacridar ([2]; liver): significantly increased
- Percentage of intact tracer in plasma [3]: 19.9 ± 2.4%
- Metabolism in vivo (mouse plasma) [3]: rapidly metabolized
